Series [1] relates to VERO cells. As to the kind of experiment: Cytotoxicity against VERO cells (MTS, 72 hours). To be noted: for IC50: read-out: Vero IC50 (toxicity); for toxicity / cytotoxicity in words: in vitro study.
The subject of series [2] is M. tuberculosis H37Rv. As to the kind of experiment: MIC vs. M. tuberculosis H37Rv, microplate Alamar Blue assay (MABA). Type of series: cell-based. The note with it: for enhancement in potency of macrolide over counterpart ketolide: vs. telithromycin, RU004, RU56006 respectively; for MIC / activity vs. M. tuberculosis in words: in vitro. In general terms: The colour change of resazurin is a common sign of viable cells or microbes.

The test system of series [3] is tubercle bacillus. To be noted: literature (Luna-Herrera 1995; Truffot-Pernot 1995); cited from earlier work.
In series [4] the test system is tubercle bacillus. To be noted: literature; cited from earlier work.
Series [5] in a line: Overt toxicity in mice, escalating 5-day cycles. Type of series: in vivo, Balb/C mice. To be noted: once daily 5-day cycles, sequentially 200, 300, 400, 500 mg/kg. On the procedure:
Prior to assessing in vivo efficacy, RU66252 and RU69874 were administered to pairs of female Balb/C mice once daily for 5-day cycles, and observed for overt signs of toxicity (e.g., weight loss, ruffled fur, and huddling), after which the mice were rested for 1 or 2 days. Then the dosage was increased for another 5-day cycle. Overall, the same mice received sequentially for 5 days: 200, 300, 400, and 500 mg/kg.

The test system of series [6] is M. tuberculosis. The series is described as follows: Activity against M. tuberculosis in mice (follow-up, dose response). Type of series: in vivo.
Series [7] has as its system M. tuberculosis Erdman. Type of series: in vivo, BALB/c mice. To be noted: for activity against M. tuberculosis in the acute phase of infection: 100 and 200 mg/kg qd (RU60887 100 mg/kg only).
The test system of series [8] is J774.1 macrophage cell line. The series is described as follows: Cytotoxicity against J774.1 macrophage cell line. Format: cell-based, murine. To be noted: for IC50: Mus musculus, J774.1.
The subject of series [9] is M. tuberculosis H37Rv. To be noted: positive quality control, MABA; cited from earlier work.
The subject of series [10] is VERO cells.
Where [11] appears, read: Mycobacterium tuberculosis, H37RV, Table 1a, 11,12-carbamate derivatives, read-out: Anti-TB Activity MIC.
[12] abbreviates: Mycobacterium tuberculosis, H37RV, read-out: minimum inhibitory concentration (MIC) against M. tuberculosis.
Setting [13] is: Table 1a, J774 cells, read-out: J774 IC50 (toxicity).

Values after ≈ are worked out from the molar mass of the structure shown. Read-outs that look alike come from different tables or passages of the source.

Here are results for five compounds from patent US20050014706A1, “Method of treating tuberculosis” (priority 2003, published 2005).

On to `CC[C@H]1OC(=O)[C@H](C)[C@@H](O[C@H]2C[C@@](C)(OC)[C@@H](O)[C@H](C)O2)[C@H](C)[C@@H](O[C@@H]2O[C@H](C)C[C@H](N(C)C)[C@H]2O)[C@](C)(OC)C[C@@H](C)C(=O)[C@H](C)[C@@H](O)[C@]1(C)O` [Clarithromycin, reference compound], for which the IC50 in [1] (Table 2a, Vero cells) is 41 µM. Besides, the MIC in series [2] (Table 2a, 11,12-diols, read-out: Anti-TB Activity MIC) was found to be 8 µM (≈ 5.98 µg/mL). Further, the “enhancement in potency of macrolide over counterpart ketolide” value (from here on “enhancement … over counterpart ketolide”) in [2] came to 16 fold. Also, in [3], the “activity in mouse models” value is “marginal and nil”. In addition, the “MIC against the tubercle bacillus” value in [4] was 4 to 64 µg/mL.

`CC[C@H]1OC(=O)[C@H](C)C(OC2CC(C)(OC)[C@@H](O)[C@H](C)O2)[C@H](C)[C@@H](O[C@@H]2O[C@H](C)C[C@H](N(C)C)[C@H]2O)[C@](C)(OC)C[C@@H](C)C(=O)[C@H](C)[C@H]2N(NCCCc3ccnc4ccccc34)C(=O)O[C@]12C` (stereo partly drawn) [RU66252]: in series [1], the “toxicity / cytotoxicity in words” value is on record as “comparable to clarithromycin”. For the same compound, the MIC came out at 0.25 µM (≈ 0.239 µg/mL) in series [2] (Table 1a, 11,12-carbamate derivatives, read-out: Anti-TB Activity MIC); 9 µM (≈ 8.61 µg/mL) in series [2] (Table 3, parallel-synthesis carbazate library products); 0.25 µM (≈ 0.239 µg/mL) in series [2] (read-out: minimum inhibitory concentration (MIC) against M. tuberculosis). Further, the “MIC vs. M. tuberculosis” value in [2] (follow-up assays) was “about 9 μM”. Further, the “MIC / activity vs. M. tuberculosis in words” value in series [2] is given as “very low”. The “enhancement … over counterpart ketolide” value in series [2] stood at 16 fold. Also, the “overt signs of toxicity (weight loss, ruffled fur, huddling)” value in series [5] was “No signs of overt toxicity”. For the same compound, the “M. tuberculosis inhibition in mice” value in series [6] (150 mg/kg and 200 mg/kg) is recorded as “significant”. Besides, the “dose response in mice” value in series [6] (between 50 and 200 mg/kg) was “shows a dose response”. For the same compound, in series [6] (mice), the “activity against M. tuberculosis in mice” value was “active”. Besides, the “colonies from treated mouse lung homogenates” value in series [7] (10^−2 dilution plates) is “no colonies”. The “activity against M. tuberculosis in the acute phase of infection” value in series [7] was “dose-dependent activity”.

For `CC[C@H]1OC(=O)[C@H](C)[C@@H](O[C@H]2C[C@@](C)(OC)[C@@H](O)[C@H](C)O2)[C@H](C)[C@@H](O[C@@H]2O[C@H](C)C[C@H](N(C)C)[C@H]2O)[C@](C)(OC)C[C@@H](C)C(=O)[C@H](C)[C@H]2N(CCCCn3cnc(-c4cccnc4)c3)C(=O)O[C@]12C` [RU69874], the IC50 in series [1] (Chlorocebus sabaeus, Vero) was found to be 27 µM; in series [8] (setting [13]), 58.6 µM; in series [8] (based on J774 cells, read-out: toxicity), 59 µM. In addition, the “toxicity / cytotoxicity in words” value in series [1] is “comparable to clarithromycin”. In addition, the MIC in [2] (setting [11]) and in series [2] (setting [12]) was 0.38 µM (≈ 0.369 µg/mL) throughout. Besides, the “MIC / activity vs. M. tuberculosis in words” value in [2] was “very low”. Besides, the “enhancement … over counterpart ketolide” value in [2] is recorded as 126 fold. In addition, the “overt signs of toxicity (weight loss, ruffled fur, huddling)” value in [5] is given as “No signs of overt toxicity”. Moreover, the “activity against M. tuberculosis in the acute phase of infection” value in [7] is reported as “less activity”. In [8] (J774 cells), the “selectivity index (SI)” value was found to be 154.

For the compound `NNC(=O)c1ccncc1` [Isoniazid], in series [9], the “expected MIC range of quality control compound” value was 0.025 to 0.1 µg/mL.

Consider `CC[C@H]1OC(=O)[C@@](C)(F)C(=O)[C@H](C)[C@@H](O[C@@H]2O[C@H](C)C[C@H](N(C)C)[C@H]2O)[C@](C)(OCC#Cc2cc(-c3cnc4ccccc4c3)no2)C[C@@H](C)C(=O)[C@H](C)[C@H]2NC(=O)O[C@@]21C` [Compound A323348], for which the IC50 in series [1] (Chlorocebus sabaeus, Vero) came out at 24.3 µM; in [8] (setting [13]) it was 15.3 µM. Further, the MIC in series [2] (setting [11]) and in series [2] (setting [12]) was 0.38 µM (≈ 0.323 µg/mL) throughout. For the same compound, in series [2], the “MIC / activity vs. M. tuberculosis in words” value is reported as “very low”. The “toxicity / cytotoxicity in words” value in [10] was “comparable to clarithromycin”.
